Assays:
[1] = xn = mol fraction of the nth substance listed; conditions: Liquid, isochoric method
[2] = molar heat capacity at constant volume; xn = mol fraction of the nth substance listed; conditions: Liquid, Vacuum adiabatic calorimetry

C=C(F)C(F)(F)F [2,3,3,3-tetrafluoro-1-propene] + CCC
Conditions	mass density [kg/m3]	molar heat capacity at constant volume [J/K/mol]
[1], 254.28 K, 1867 kPa, x1 = 0.607	969.9	–
[1], 255.92 K, 1645 kPa, x1 = 0.825	1109.8	–
[1], 256.67 K, 3513 kPa, x1 = 0.607	969.4	–
[1], 258.25 K, 3241 kPa, x1 = 0.825	1109.2	–
[1], 259.05 K, 5156 kPa, x1 = 0.607	968.9	–
[1], 260.61 K, 4872 kPa, x1 = 0.825	1108.7	–
[1], 261.41 K, 6787 kPa, x1 = 0.607	968.5	–
[1], 262.96 K, 6492 kPa, x1 = 0.825	1108.1	–
[1], 263.78 K, 8419 kPa, x1 = 0.607	968	–
[1], 265.27 K, 8092 kPa, x1 = 0.825	1107.6	–
[1], 266.11 K, 10027 kPa, x1 = 0.607	967.5	–
[1], 267.59 K, 9690 kPa, x1 = 0.825	1107	–
[1], 268.42 K, 11618 kPa, x1 = 0.607	967	–
[1], 269.9 K, 11286 kPa, x1 = 0.825	1106.5	–
[1], 270.72 K, 13214 kPa, x1 = 0.607	966.5	–
[1], 272.22 K, 12888 kPa, x1 = 0.825	1105.9	–
[1], 290.26 K, 1730 kPa, x1 = 0.521	821.2	–
[1], 292.5 K, 2803 kPa, x1 = 0.521	820.9	–
[1], 294.78 K, 3896 kPa, x1 = 0.521	820.6	–
[1], 297.13 K, 5024 kPa, x1 = 0.521	820.3	–
[1], 299.47 K, 6148 kPa, x1 = 0.521	820	–
[1], 301.86 K, 7296 kPa, x1 = 0.521	819.7	–
[1], 304.23 K, 8438 kPa, x1 = 0.521	819.4	–
[1], 306.62 K, 9582 kPa, x1 = 0.521	819.1	–
[1], 309.04 K, 10744 kPa, x1 = 0.521	818.8	–
[1], 311.5 K, 11920 kPa, x1 = 0.521	818.5	–
[1], 313.73 K, 1699 kPa, x1 = 0.285	626	–
[1], 313.86 K, 13057 kPa, x1 = 0.521	818.2	–
[1], 316.16 K, 2581 kPa, x1 = 0.285	625.9	–
[1], 318.63 K, 3477 kPa, x1 = 0.285	625.7	–
[1], 321.06 K, 4361 kPa, x1 = 0.285	625.5	–
[1], 323.51 K, 5252 kPa, x1 = 0.285	625.3	–
[1], 326.04 K, 6172 kPa, x1 = 0.285	625.1	–
[1], 328.54 K, 7079 kPa, x1 = 0.285	624.9	–
[1], 331.04 K, 7988 kPa, x1 = 0.285	624.7	–
[1], 333.51 K, 8883 kPa, x1 = 0.285	624.5	–
[1], 336.01 K, 9790 kPa, x1 = 0.285	624.3	–
[1], 338.48 K, 10686 kPa, x1 = 0.285	624.1	–
[1], 340.94 K, 11578 kPa, x1 = 0.285	624	–
[1], 343.4 K, 12468 kPa, x1 = 0.285	623.8	–
[1], 345.88 K, 13366 kPa, x1 = 0.285	623.6	–
[1], 348.3 K, 14239 kPa, x1 = 0.285	623.4	–
[2], 255.48 K, 2690 kPa, x1 = 0.607	–	81.79
[2], 257.09 K, 2443 kPa, x1 = 0.825	–	89.48
[2], 257.86 K, 4335 kPa, x1 = 0.607	–	82.48
[2], 259.43 K, 4057 kPa, x1 = 0.825	–	89.48
[2], 260.23 K, 5972 kPa, x1 = 0.607	–	82.92
[2], 261.79 K, 5682 kPa, x1 = 0.825	–	90.4
[2], 262.6 K, 7603 kPa, x1 = 0.607	–	82.74
[2], 264.12 K, 7292 kPa, x1 = 0.825	–	90.81
[2], 264.95 K, 9223 kPa, x1 = 0.607	–	83.87
[2], 266.43 K, 8891 kPa, x1 = 0.825	–	90.2
[2], 267.27 K, 10823 kPa, x1 = 0.607	–	83.61
[2], 268.75 K, 10488 kPa, x1 = 0.825	–	91.52
[2], 269.57 K, 12416 kPa, x1 = 0.607	–	84.82
[2], 271.06 K, 12087 kPa, x1 = 0.825	–	91.21
[2], 275.52 K, 2097 kPa, x1 = 0.825	–	93.05
[2], 276.02 K, 1993 kPa, x1 = 0.607	–	87.59
[2], 277.84 K, 3440 kPa, x1 = 0.825	–	93.86
[2], 278.37 K, 3320 kPa, x1 = 0.607	–	87.07
[2], 280.2 K, 4817 kPa, x1 = 0.825	–	94.67
[2], 280.75 K, 4661 kPa, x1 = 0.607	–	88.46
[2], 282.57 K, 6197 kPa, x1 = 0.825	–	95.49
[2], 283.13 K, 6012 kPa, x1 = 0.607	–	88.11
[2], 284.92 K, 7561 kPa, x1 = 0.825	–	95.18
[2], 285.51 K, 7357 kPa, x1 = 0.607	–	88.54
[2], 287.24 K, 8908 kPa, x1 = 0.825	–	95.69
[2], 287.89 K, 8694 kPa, x1 = 0.607	–	88.89
[2], 289.57 K, 10249 kPa, x1 = 0.825	–	96.1
[2], 290.27 K, 10038 kPa, x1 = 0.607	–	89.15
[2], 291.9 K, 11593 kPa, x1 = 0.825	–	97.32
[2], 292.66 K, 11390 kPa, x1 = 0.607	–	89.15
[2], 295.03 K, 12722 kPa, x1 = 0.607	–	89.41
[2], 295.93 K, 1917 kPa, x1 = 0.825	–	96.81
[2], 298.32 K, 3042 kPa, x1 = 0.825	–	97.73
[2], 300.77 K, 4193 kPa, x1 = 0.825	–	97.63
[2], 302.78 K, 1793 kPa, x1 = 0.607	–	91.49
[2], 303.23 K, 5349 kPa, x1 = 0.825	–	97.53
[2], 305.28 K, 2835 kPa, x1 = 0.607	–	91.83
[2], 305.69 K, 6504 kPa, x1 = 0.825	–	99.26
[2], 307.82 K, 3898 kPa, x1 = 0.607	–	91.4
[2], 308.14 K, 7659 kPa, x1 = 0.825	–	98.75
[2], 310.37 K, 4961 kPa, x1 = 0.607	–	92.35
[2], 310.6 K, 8808 kPa, x1 = 0.825	–	100.68
[2], 312.91 K, 6022 kPa, x1 = 0.607	–	93.48
[2], 313.06 K, 9957 kPa, x1 = 0.825	–	100.58
[2], 314.95 K, 2140 kPa, x1 = 0.285	–	84.58
[2], 315.46 K, 7086 kPa, x1 = 0.607	–	93.82
[2], 315.53 K, 11107 kPa, x1 = 0.825	–	102.31
[2], 317.06 K, 2127 kPa, x1 = 0.521	–	93.58
[2], 317.4 K, 3029 kPa, x1 = 0.285	–	85.48
[2], 318.01 K, 8150 kPa, x1 = 0.607	–	94.52
[2], 319.49 K, 2066 kPa, x1 = 0.825	–	102.21
[2], 319.6 K, 2994 kPa, x1 = 0.521	–	93.99
[2], 319.85 K, 3919 kPa, x1 = 0.285	–	86.63
[2], 320.54 K, 9207 kPa, x1 = 0.607	–	95.55
[2], 322.06 K, 2960 kPa, x1 = 0.825	–	103.02
[2], 322.15 K, 3867 kPa, x1 = 0.521	–	94.07
[2], 322.29 K, 4807 kPa, x1 = 0.285	–	87.15
[2], 323.08 K, 10263 kPa, x1 = 0.607	–	96.25
[2], 324.62 K, 3854 kPa, x1 = 0.825	–	104.35
[2], 324.7 K, 4739 kPa, x1 = 0.521	–	94.55
[2], 324.78 K, 5712 kPa, x1 = 0.285	–	87.47
[2], 325.63 K, 11326 kPa, x1 = 0.607	–	96.68
[2], 327.17 K, 4744 kPa, x1 = 0.825	–	105.16
[2], 327.23 K, 5608 kPa, x1 = 0.521	–	95.28
[2], 327.29 K, 6626 kPa, x1 = 0.285	–	87.72
[2], 329.73 K, 5637 kPa, x1 = 0.825	–	105.87
[2], 329.76 K, 6474 kPa, x1 = 0.521	–	95.44
[2], 329.79 K, 7534 kPa, x1 = 0.285	–	87.53
[2], 332.28 K, 8436 kPa, x1 = 0.285	–	87.98
[2], 332.3 K, 6534 kPa, x1 = 0.825	–	105.97
[2], 332.3 K, 7345 kPa, x1 = 0.521	–	94.79
[2], 334.76 K, 9337 kPa, x1 = 0.285	–	88.36
[2], 334.85 K, 7427 kPa, x1 = 0.825	–	106.28
[2], 334.85 K, 8221 kPa, x1 = 0.521	–	95.92
[2], 337.25 K, 10238 kPa, x1 = 0.285	–	88.81
[2], 337.4 K, 8319 kPa, x1 = 0.825	–	106.89
[2], 337.4 K, 9098 kPa, x1 = 0.521	–	96.32
[2], 339.71 K, 11132 kPa, x1 = 0.285	–	88.87
[2], 339.93 K, 9963 kPa, x1 = 0.521	–	96.24
[2], 339.94 K, 9209 kPa, x1 = 0.825	–	106.69
[2], 342.17 K, 12023 kPa, x1 = 0.285	–	89.07
[2], 342.44 K, 10822 kPa, x1 = 0.521	–	96.32
[2], 342.47 K, 10092 kPa, x1 = 0.825	–	106.89
[2], 344.64 K, 12917 kPa, x1 = 0.285	–	89.19
[2], 344.94 K, 11680 kPa, x1 = 0.521	–	96.56
[2], 345.02 K, 10985 kPa, x1 = 0.825	–	107.2
[2], 347.09 K, 13803 kPa, x1 = 0.285	–	89.32
[2], 347.44 K, 12532 kPa, x1 = 0.521	–	96.89
[2], 347.55 K, 11870 kPa, x1 = 0.825	–	106.38
